“And” between values parts separate entries of the source, which are not always exact repeats. Equal values may be shown once.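 Tested at 5 concentrations; 48 h exposure; 96-well plates; endpoints linearly interpolated, else capped at highest concentration. Abbreviation: GI50, concentration required for 50% inhibition of growth. TGI is the concentration that stops growth completely.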
Key:
Assay in all cases: growth of human tumour cells (NCI), 48 h
[1] = tested on: SR leukemia
[2] = tested on: UACC-257 melanoma
[3] = tested on: SN12C renal
[4] = tested on: OVCAR-3 ovarian
[5] = tested on: UACC-62 melanoma
[6] = tested on: COLO 205 colon
[7] = tested on: M14 melanoma
[8] = tested on: HL-60(TB) leukemia
[9] = tested on: LOX IMVI melanoma
[10] = tested on: CCRF-CEM leukemia

Structure (SMILES)	TGI [1]	TGI [2]	TGI [3]	TGI [4]	TGI [5]	TGI [6]	TGI [7]	TGI [8]	TGI [9]	TGI [10]	GI50 [1]	GI50 [2]	GI50 [3]	GI50 [4]	GI50 [5]	GI50 [6]	GI50 [7]	GI50 [8]	GI50 [10]	GI50 [9]
Cc1cc(C)nc(NS(=O)(=O)c2ccc(Nc3c4ccccc4nc4c(C(=O)Nc5ccc(S(=O)(=O)N=C(N)N)cc5)ccc(Cl)c34)cc2)n1	65.4 µM	> 100 µM	80.9 µM	37.5 µM	36.9 µM	> 100 µM	> 100 µM	54 µM	34.7 µM											
O=P(O)(CCP(=O)(O)c1ccccc1)c1ccccc1	> 100 µM	> 100 µM	> 100 µM	> 100 µM	> 100 µM	> 100 µM	> 100 µM	> 100 µM	> 100 µM	> 100 µM										
O=[N+]([O-])c1ccc(C(c2c[nH]c3ccccc23)c2c[nH]c3ccccc23)cc1	22.5 µM	9.79 µM	35.2 µM	8.31 µM	26.5 µM	21.8 µM	33.2 µM	49 µM	41.2 µM	1.17 µM										
COc1cc(C2CC(c3ccc(C)cc3)=NN2C=O)ccc1Oc1ccnc2cc(Cl)ccc12 (stereo not drawn)	> 50 µM	> 50 µM	> 50 µM	> 50 µM	> 50 µM	> 50 µM	> 50 µM	> 50 µM	> 50 µM	> 50 µM	> 50 µM	> 50 µM	> 50 µM	> 50 µM	11.2 µM	> 50 µM	14.2 µM	> 50 µM	> 50 µM	> 50 µM
O=C(CN1CCN(c2ncccn2)CC1)Nc1ccc(Cl)cc1C(=O)c1ccccc1Cl	> 100 µM	> 100 µM	> 100 µM	> 100 µM	> 100 µM	> 100 µM	> 100 µM	> 100 µM	> 100 µM	> 100 µM	67.8 µM	> 100 µM	> 100 µM	> 100 µM	92.8 µM	> 100 µM	> 100 µM	25.3 µM	83.5 µM	> 100 µM
COc1ccc2nc(N/N=C(\C)c3ccccn3)cc(C)c2c1	0.452 µM	1.09 µM	1.71 µM	0.215 µM	1.01 µM	1.15 µM	1.13 µM	7.01 µM	1.28 µM	0.4 µM	0.0592 µM	0.276 µM	0.317 µM	0.0652 µM	0.275 µM	0.024 µM	0.212 µM	0.384 µM	0.0679 µM	0.236 µM
O=C1NCc2ccc3c(-c4cccc(Cl)c4)c[nH]c3c21	> 50 µM	> 50 µM	> 50 µM	> 50 µM	> 50 µM		> 50 µM		> 50 µM	> 50 µM	0.0849 µM	> 42.9 µM	0.438 µM	0.18 µM	0.278 µM	0.297 µM	0.147 µM	0.146 µM	0.192 µM	0.279 µM
N#Cc1c(-c2nc3ccccc3s2)c(=O)oc2cc(O)ccc12	> 100 µM	> 100 µM	> 100 µM	> 100 µM	> 100 µM	30.8 µM	> 100 µM	66.5 µM	> 100 µM	> 100 µM										
CN1CC[C@@H](c2c(O)cc(O)c3c(=O)cc(-c4ccccc4Cl)oc23)[C@@H](O)C1	0.0468 µM and 0.277 µM	0.366 µM and 0.619 µM and 0.282 µM	13.2 µM	> 19.4 µM	0.133 µM and 0.182 µM and 0.102 µM	0.223 µM and 0.116 µM	0.225 µM and 0.226 µM and 0.104 µM	0.0693 µM and 0.338 µM	> 100 µM		0.014 µM	0.125 µM and 0.137 µM	0.213 µM	0.0636 µM and 0.0375 µM and 0.0256 µM	0.0571 µM and 0.0424 µM	0.0917 µM	0.0771 µM and 0.0278 µM	0.0148 µM	0.038 µM and 0.0412 µM	0.0289 µM
COc1ccc(-c2nn3ncccc3c2-c2ccnc(Nc3ccc(Cl)c(C(F)(F)F)c3)n2)cc1	> 25 µM	> 25 µM	> 25 µM	> 25 µM	> 25 µM	> 25 µM	> 25 µM	> 25 µM	> 25 µM	> 25 µM	17.6 µM	11.5 µM	9.54 µM	10.5 µM	9.36 µM	12.7 µM	11.5 µM	11.9 µM	8.37 µM	8.95 µM
Cc1ccc(OCC(=O)N2N=C(c3ccccc3)CC2(O)c2ccccc2)cc1 (stereo not drawn)	> 100 µM	> 100 µM	40.3 µM	> 100 µM	> 100 µM	> 100 µM	90 µM	> 100 µM	> 100 µM											
O=C(c1ccccc1)C(C(=O)c1ccccc1)C1(O)C(=O)c2ccccc2C1=O	> 100 µM	> 100 µM	> 100 µM	> 100 µM	> 100 µM	> 100 µM	> 100 µM	46.9 µM	> 100 µM	83 µM										
O=C1C(=O)N(C(=O)c2ccc(Cl)c(Cl)c2)c2ccccc21	> 100 µM			> 100 µM	> 100 µM	> 100 µM	> 100 µM	> 100 µM	> 100 µM	> 100 µM										
CNC(=O)c1cc(OC2CCC(NC(=O)Nc3ccc(Cl)c(C(F)(F)F)c3)CC2)ccn1 (stereo not drawn)	32.7 µM	20.3 µM	22.1 µM	32 µM	19.4 µM	22.3 µM	20.6 µM	50.2 µM	22.2 µM	> 100 µM	4.42 µM	5.68 µM	6.2 µM	10.7 µM	5.41 µM	8.81 µM	5.47 µM	11.7 µM	4.41 µM	4.96 µM
O=C(O)c1c(-c2cccc3ccccc23)sc(-c2cccc3ccccc23)c1C(=O)O	> 100 µM	> 100 µM	> 100 µM	> 100 µM	> 100 µM	> 100 µM	> 100 µM	> 100 µM	> 100 µM	> 100 µM										
CCN(CC)CCOc1nc2ccc(OC)cc2c2c1-c1ccc(OC)cc1C2=O	1.69 µM	3.12 µM	2.06 µM	2.15 µM	7.65 µM	1.93 µM	3.1 µM	3.37 µM	1.88 µM	3.26 µM	0.344 µM	1.4 µM	0.531 µM	0.872 µM	2.76 µM	0.546 µM	1.42 µM	1.06 µM	0.299 µM	0.513 µM
